Experimental data published in patent US9918656B2, “Implantable magnetic relaxation sensors and methods of measuring a sensor's cumulative exposure to a biomarker” (Massachusetts Institute of Technology, priority 2010, dated 2018).

Tested on: murine model
Test: Doxorubicin cardiotoxicity: change in T2 of explanted myoglobin sensors
Conditions: myoglobin sensors left in vivo for 72 h after implantation; FIG. 17
From the text: FIG. 17 is a chart, illustrating data from experiments using sensors to detect the cardiotoxic effect of the drug Doxorubicin measured by change in T2 of […] sensors.
Derivatized particles were encapsulated within small diffusion devices. Polycarbonate diffusion membranes (SPI Supplies) were affixed by double-sided adhesive to one side of high-density polyethylene cylinders (thickness=1.6 mm, inner diameter=4.1 mm, outer diameter=7.9 mm). The opposing end was closed off by single-sided adhesive (3M) after the reservoir was filled with 25 μl particle solution. Devices (n=6 per animal) were implanted subcutaneously in the flank. The animals were euthanized and the devices explanted for single-sided relaxometry at specified time points. Devices were sealed with single-sided adhesive and replaced in the implant site for imaging.
The application of the sensors to discern drug cardiotoxicity was also studied. Doxorubicin is a potent anthracycline antibiotic that has found wide clinical use as a cancer chemotherapeutic. […] It was confirmed that serum myoglobin increases after doxorubicin administration in a murine model (as illustrated in FIG. 16), although at an order of magnitude lower concentration than after acute MI (10^2 ng/ml versus 10^3 ng/ml). Myoglobin sensors were thus left in vivo for 72 h after implantation (as opposed to 24 h for acute MI). […]

COc1cccc2c1C(=O)c1c(O)c3c(c(O)c1C2=O)C[C@@](O)(C(=O)CO)C[C@@H]3O[C@H]1C[C@H](N)[C@H](O)[C@H](C)O1 [Doxorubicin]
sensor T2, experimental versus control groups: clear distinction in sensor T2 between the experimental and control groups
